Measurements as given in patent US9908919B2, “Cyclic apelin derivatives for the treatment of heart failure” (priority 2013, dated 2018).
Where a SMILES comes first, the peptide text is derived from it.

Experiments:
[1] = Plasma stability assay (LC-MS); assay type: in vitro ADME; settings: male, Sprague-Dawley; Table 3; heparinized rat plasma, 37° C., LC-MS percent remaining; read-out: Plasma stability t½
Experimental: Working solution: 1 mg/mL test article is prepared in Milli-Q water
Extraction solution: Methanol:Acetonitrile:Water (1:1:1) with 0.1% Formic Acid and 400 ng/mL Glyburide.
Plasma: Male Sprague-Dawley rat plasma (with sodium heparin), purchased from Bioreclamation LLC (Liverpool, N.Y.).
Test article was prepared in one of the following biological matrices: heparinized rat plasma, heparinized rat whole blood or lung homogenate. The plasma and whole blood sample was prepared at 5000 ng/mL by adding 5 uL of 1 mg/mL Working solution to 995 uL of rat plasma or whole blood. Lung homogenate samples were prepared by diluting lung homogenate to 1 mg/ml protein concentration with phosphate buffered saline (PBS), followed by addition of 5 uL Working solution to 995 uL diluted lung homogenate. The samples were incubated at 37° C. with gentle shaking (65˜75 rpm) in a water bath incubator. At times 0 min, 5 min, 15 min, 30 min, 60 min, 120 and 240 min, 25 uL aliquots of incubation samples were transferred to 96-well plate and immediately protein precipitated using 150 uL of Extraction solution. After completion of incubation experiment, the sample plate was centrifuged at 4000 rpm at 4° C. for 10 minutes. Afterwards, a pipetting device (Tecan Temo) was used to transfer the supernatants to another plate and add 50 uL of water to all samples. The plate was vortexed prior to LC-MS analysis. […]

[2] = rat
Experimental: (§1) The calcium flux protocol described above was followed, with the following changes. The peptides were also incubated with 5% rat plasma (Bioreclamation # [sequence]-M, Na Heparin-treated). Readings were taken at time points t0 and t24 hrs, after incubation in a 37° C. tissue culture incubator. Peptide plasma half-life in minutes was estimated by calculating the following: • 1) LN((EC50 at t0)/(EC50 at t24 hrs)), • 2) Calculate slope of value above and • 3) t112=0.693/(slope^2).

[3] = in vitro; settings: rat, plasma
Experimental: as §1

- half-life at 5000 ng/mL [1]: 2.42 h
- Surrogate Activity based Plasma stability t½ [2]: >16.67 h
- half-life [3]: > 16.7 h
SMILES: CCCC[C@@H]1NC(=O)[C@@H]2CCCN2C(=O)CNC(=O)[C@H](CCCCN)NC(=O)[C@H](Cc2c[nH]cn2)NC(=O)[C@@H](NC(=O)[C@H](CC(C)C)NC(=O)[C@H](CCCNC(=N)N)NC(=O)[C@@H]2CCCN2C(=O)[C@H](CCCNC(=N)N)NC(=O)[C@@H]2CCC(=O)N2)CSSC[C@@H](C(=O)O)NC(=O)[C@@H]2CCCN2C1=O [Example 8, pE-R-P-R-L-C*-H-K-G-P-Nle-P-C*-OH] (HELM PEPTIDE1{[Glp].R.P.R.L.C.H.K.G.P.[Nle].P.C}$PEPTIDE1,PEPTIDE1,6:R3-13:R3$$$V2.0)
